Assay results as given in PMC4923258, “A Recombinant Human Pluripotent Stem Cell Line Stably Expressing Halide-Sensitive YFP-I152L for GABAAR and GlyR-Targeted High-Throughput Drug Screening and Toxicity Testing” (Frontiers in Molecular Neuroscience, 2016).
Several values for one entry are separate records, joined by “and”; a condition that tells them apart may be missing. Equal entries are not always repeated. Where two headings read alike, the source gives them in different places.

Assays:
GABAAR [1] = type: cell-based, human; settings: 1 μM GABA
Experimental: (§1) To this end, human pluripotent NT2-YFP-I152L cells were differentiated into neuronal NT2-N-YFP-I152L cells as described in the Methods section and were seeded at a density of 2 × 10^4 cells in each well of a 96-well plate. 48 h later, the culture medium was completely removed and was replaced by 50 μl NaCl control solution.
(§2) Approximately 1 h prior to commencement of experiments culture media in 96-well plates was removed manually and was replaced by 50 μl standard control solution, which contained (in mM) NaCl 140, KCl 5, CaCl2 2, MgCl2 1, HEPES 10, and glucose 10 (pH 7.4, NaOH) upon washing the cells once in 50 μl standard control solution. […] All drugs were diluted from stocks at the day of the experiment and experiments were conducted at room temperature.
(§3) The experimental protocol involved imaging each well for 30 s at 2 Hz acquisition rate capturing the initial fluorescence intensity in the control situation as well as the test situation upon receptor activation, respectively. Liquid handling was performed manually.
(§4) Cells depicted in fluorescence micrographs were selected manually based on strongest quench for low and intermediate concentrations and based on cell morphology in experiments where high drug concentrations were applied. Registered images of fluorescent cells were segmented and quantitatively analyzed using NIS-Elements software (Nikon, Japan). The fluorescence signal of identified cells was measured in images acquired before and after the addition of agonist solution as the mean of all pixel values within the area of a cell. “% fluorescence quench” in chloride imaging experiments is defined as %fluorescence quench=(Finit−Ffinal)∗100/Finit where Finit and Ffinal are the initial and final values of fluorescence, respectively.
(§5) Individual concentration responses were constructed by pooling results from ten cells in one well exposed to agonist solution. Concentration-response relationships were fitted with the following equation: F= Fmax+Fmin− Fmax/1+([Agonist]/EC50)^nH where F is the fluorescence corresponding to a particular agonist concentration, [Agonist]; Fmin and Fmax are the minimal and maximal fluorescence values, respectively; EC50 is the concentration that elicits half-maximal activation; and nH is the Hill coefficient. Curve fits were performed using a least squares fitting routine (Origin 7G, OriginLab Corporation). All averaged results are expressed as mean ± SD.

GlyR [2] = type: cell-based, human
Experimental: as §1, §2, §3, §4, §5

GlyRs = test system: GlyRs; parameters: method as in Harvey et al., 1999; settings: ref Harvey et al., 1999, cited from earlier work
GABAARs = test system: GABAARs; parameters: method as in Kumamoto and Murata, 1995; settings: ref Kumamoto and Murata, 1995; cited from earlier work
GABAAR [3] = type: cell-based, human; settings: GABA concentration-response, mean ± SD, n = 10
Experimental: (§6) To assess whether the generated recombinant stem cell line is suitable to chloride imaging and functional profiling of GABAARs and GlyRs, NT2-YFP-I152L cells were differentiated into neuronal NT2-N- YFP-I152L cells as described in the Methods section and were seeded at defined density of 2 × 10^4 cells in each well of a 96-well plate. Two days later and approximately 1 h prior to fluorescence imaging, the culture medium was completely removed and was replaced by 50 μl NaCl control solution. The standard NaCl control solution contained (in mM): NaCl 140, KCl 5, CaCl2 2, MgCl2 1, HEPES 10, glucose 10, pH 7.4 using NaOH. The 96-well plate was placed onto the motorized stage of a high-content imaging system and cells were imaged in control solution to record cellular YFP fluorescence in unquenched state. Because YFP-I152L is almost insensitive to chloride, its fluorescence intensity is highest in NaCl solution allowing for optimal focussing into the optical layer of cells. […] Fluorescence quench was calculated at single cell level by quantitative analysis as described in the Methods section. […]
(§7) The experimental protocol involved imaging each well for 30 s at 2 Hz acquisition rate capturing the initial fluorescence intensity in the control situation as well as the test situation upon receptor activation, respectively. […]

GABAAR [4] = assay: Proportion of cells with at least 20% fluorescence quench at saturating GABA; type: cell-based, human; settings: for Percentage of non-treated NT2-YFP-I152L stem cells responding with at least 20% fluorescence quench: 1 mM saturating GABA; for GABAAR-positive cells as percentage of the overall population / Percentage of cells per image with fluorescence quench of at least 20%: saturating GABA
Excerpt: (§8) The applicability of the established recombinant in vitro model for high-throughput GABAAR and GlyR-targeted screening in the context of lead identification and NT/DNT testing strongly depends on the proportion of GABAAR and GlyR positive NT2-N cells in the whole cell population. A very small percentage of GABAAR and GlyR expressing NT2-N cells requires a large number of individual experiments including technical and biological replicates to be conducted in order to obtain statistically sound results, potentially compromising the usability of the established cell line for the envisioned application. […] The threshold of 20% fluorescence quench was chosen because, from our experience, any measured cellular fluorescence change within a range of −20 to 20% reflects biological noise typical to the employed assay. As a starting point toward analysing the proportion of GABAAR and GlyR-positive cells we segmented the images of a total of 24 individual experiments from two different differentiation batches (GABAAR, batch #1: n = 7, batch #2: n = 6; GlyR, batch #1: n = 6, batch #2: n = 5) using a modified version of DetecTIFF^© software (Gilbert et al., [2009c]) employing two individual sets of parameters for the identification of small neuronal NT2-N-YFP-I152L and larger non-neuronal NT2-YFP-I152L cells. […] Exemplary segmentation masks created from the image shown in Figure 6A for quantitative analysis of fluorescence intensity and calculation of “% fluorescence quench” in small neuronal NT2-N-YFP-I152L cells and large non-neuronal cells are depicted in Figures 6B,C.
(§9) Images of fluorescent cells were segmented and quantitatively analyzed using a modified version of DetecTIFF® software (Gilbert et al., [2009c]). In brief, images were segmented using an iterative size and intensity-based thresholding algorithm and the fluorescence signal of identified cells was calculated as the mean of all pixel values within the area of a cell.

GlyR [5] = settings: mean ± SD, n = 10; for nH (Hill coefficient): glycine concentration-response
Experimental: as §6, §7
Cells depicted in fluorescence micrographs were selected manually based on strongest quench for low and intermediate concentrations and based on cell morphology in experiments where high drug concentrations were applied. Registered images of fluorescent cells were segmented and quantitatively analyzed using NIS-Elements software (Nikon, Japan). The fluorescence signal of identified cells was measured in images acquired before and after the addition of agonist solution as the mean of all pixel values within the area of a cell. “% fluorescence quench” in chloride imaging experiments is defined as %fluorescence quench=(Finit−Ffinal)∗100/Finit where Finit and Ffinal are the initial and final values of fluorescence, respectively. […]

GlyR [6] = settings: for Percentage of non-treated NT2-YFP-I152L stem cells responding with at least 20% fluorescence quench: 1 mM saturating glycine
Excerpt: as §8, §9

[7] = read-out: IC50 (Glycine), 3 μM glycine, n = 10
[8] = 3 μM glycine, n = 10, read-out: IC50 (Glycine)

[Cl-].[Cl-].[Zn+2] [Zinc, zinc chloride]
Concentrations at which inhibition of GABA-induced anion influx was observed (GABAAR [1]): > 100 µM | IC50 (GABAAR [1]; zinc 10 nM-1 mM, could not be calculated, presumed, read-out: IC50 (GABA-induced anion influx)): > 1000 µM | Concentrations at which inhibition of glycine-induced anion influx was observed (GlyR [2]; 3 μM glycine): > 100 µM | IC50 (GlyR [2]; 3 μM glycine, zinc 10 nM-1 mM, could not be calculated, presumed, read-out: IC50 (glycine-induced anion influx)): > 1000 µM | Increase of glycine-induced fluorescence quench (GlyR [2]; in presence of 1 and 10 μM zinc, not significant): about 10% | Concentrations inhibiting glycine-activated currents (GlyRs; high concentrations): > 100 µM | Concentrations potentiating glycine-activated currents (GlyRs; low concentrations): < 10 µM | Concentrations inhibiting GABAARs (GABAARs): > 10 µM

CN1CCc2cc3c(cc2[C@H]1[C@@H]1OC(=O)c2c1ccc1c2OCO1)OCO3 [Bicuculline, bicuculline]
IC50 (GABAAR [1]; read-out: IC50 (GABA), n = 10): 1.1 µM | Sensitivity of glycine-induced I- influx compared to GABA-dependent anion influx (lower) (GlyR [2]; ratio of IC50 vs glycine and IC50 vs GABA): about 10 fold | IC50 (GlyR [2]; [7]): 13.4 µM

NCCCC(=O)O [GABA, γ-aminobutyric acid]
nH (Hill coefficient) (GABAAR [3]): 1.8 ± 0.4 and 1.8 | Percentage of non-treated NT2-YFP-I152L stem cells responding with at least 20% fluorescence quench (GABAAR [4]; replicate #1): 0.62% | Percentage of non-treated NT2-YFP-I152L stem cells responding with at least 20% fluorescence quench (GABAAR [4]; replicate #2): 0.37% | GABAAR-positive cells as percentage of the overall population (GABAAR [4]; batch #1): 17 ± 8% | GABAAR-positive cells as percentage of the overall population (GABAAR [4]; batch #2): 21 ± 9% | Percentage of cells per image with fluorescence quench of at least 20% (GABAAR [4]; large non-neuronal cells, batch #1, n = 7): 3 ± 1% | Percentage of cells per image with fluorescence quench of at least 20% (GABAAR [4]; large non-neuronal cells, batch #2, n = 6): 6 ± 2% | Percentage of cells per image with fluorescence quench of at least 20% (GABAAR [4]; small cells (NT2-N-YFP-I152L), batch #1, n = 7): 28 ± 13% | Percentage of cells per image with fluorescence quench of at least 20% (GABAAR [4]; small cells (NT2-N-YFP-I152L), batch #2, n = 6): 32 ± 12%

N#Cc1nn(-c2c(Cl)cc(C(F)(F)F)cc2Cl)c(N)c1[S+]([O-])C(F)(F)F (stereo not drawn) [Fipronil, fipronil]
IC50 (GABAAR [1]; read-out: IC50 (GABA), n = 10): 10.8 µM | IC50 (GlyR [2]; [8]): 1.5 µM

picrotoxin
IC50 (GABAAR [1]; read-out: IC50 (GABA), n = 10): 5.8 µM | IC50 (GlyR [2]; [8]): 1.1 µM | Sensitivity of GlyR compared to GABAARs (higher) (GlyR [2]; ratio of IC50 vs GABA and IC50 vs glycine): approximately 5 fold

O=C1C[C@@H]2OCC=C3CN4CC[C@]56c7ccccc7N1[C@H]5[C@H]2[C@H]3C[C@H]46 [Strychnine, strychnine]
Inhibition of GABA-induced anion influx (in words) (GABAAR [1]): specifically inhibited glycine but not GABA-induced anion-influx | IC50 (GlyR [2]; [7]): 0.0172 µM

NCC(=O)O [Glycine, glycine]
nH (Hill coefficient) (GlyR [5]): 1.5 | nH (Hill coefficient) (GlyR [5]; listed as glycine): 1.5 ± 0.2 | EC50 (GlyR [5]; read-out: EC50 (half-maximal activation concentration), glycine 0.1-1000 μM in NaI solution, quench 30 s after activation): 4.3 µM | Percentage of cells per image with fluorescence quench of at least 20% (GlyR [6]): 36 ± 14% and 35 ± 7% | Percentage of non-treated NT2-YFP-I152L stem cells responding with at least 20% fluorescence quench (GlyR [6]; replicate #1): 0.68% | Percentage of non-treated NT2-YFP-I152L stem cells responding with at least 20% fluorescence quench (GlyR [6]; replicate #2): 0.92% | GlyR-positive cells as percentage of the overall population (GlyR [6]; saturating glycine, batch #1): 20 ± 9% | GlyR-positive cells as percentage of the overall population (GlyR [6]; saturating glycine, batch #2): 19 ± 4% | Percentage of cells per image with fluorescence quench of at least 20% (GlyR [6]; saturating glycine, large non-neuronal cells, batch #1, n = 6): 2 ± 1% | Percentage of cells per image with fluorescence quench of at least 20% (GlyR [6]; saturating glycine, large non-neuronal cells, batch #2, n = 5): 4 ± 2%

Cl[C@H]1[C@H](Cl)[C@@H](Cl)[C@@H](Cl)[C@H](Cl)[C@H]1Cl [Lindane, lindane]
Inhibition of GABA-induced anion influx (in words) (GABAAR [1]): no dose-dependent inhibitory activity | IC50 (GlyR [2]; [8]): 0.0781 µM
